# From patent publication EP0903346A1, “SYDNONE IMINE DERIVATIVES” (Chugai Seiyaku Kabushiki Kaisha, priority 1995, dated 1997)
# Read-outs that look alike come from different tables or passages of the source.
# Assays:
# anesthetized rat = test: Blood pressure-lowering effect in anesthetized rat; assay type: in vivo; conditions: duodenal administration
# Experimental: Male Sprague Dawley rats weighing 280 to 450 g were anesthetized with sodium pentobarbital (50 mg/kg, i.p.) and fixed in the supine position. A canula was inserted into the trachea of each animal. Then the blood pressure of the animal was measured (AP-621G, Nippon Kohden Corp.) through a polyethylene tube (PE50) inserted into the right femoral artery via a pressure transducer (Life Kit DTS, DX-300, Nippon Kohden Corp.) and the heart rate was determined from the pulse wave (AT-610G, Nippon Kohden Corp.). A canula (PE10) for injecting the maintenance anesthetic drug (sodium pentobarbital 20 mg/kg/h) was inserted into the right femoral vein. The abdominal region was medianly sectioned and a canula (PE50 connected to a injection needle 23G) for duodenal drug administration was inserted thereinto and fixed with Aronalpha for surgical use. After 60-90 minutes of recovery period, the drug was administered into duodenum. After administering the drug, the blood pressure was measured until the average blood pressure returned to the level before the administration.
# As the indication of the blood pressure-lowering effect of each drug, the dose causing a decrease in the blood pressure by 30%, based on the level before the administration, was calculated from the dose-response curve and employed as the 30% effective dose (ED30). Moreover, the time required for the recovery to the level corresponding to 50% of the maximum decrease in the blood pressure (half duration) was measured at each dose. Then the half duration at the above-mentioned ED30 was calculated and employed as the indication of the lasting time of the blood pressure-lowering effect (half duration at ED30).
# As the test compounds, use was made of the compounds of the present invention obtained in the above Examples. Table C summarizes the results. Table C
# [1] = tested on: rat ischemia-reperfusion model; test: Myocardial necrosis inhibitory effect in rat ischemia-reperfusion model; assay type: in vivo; parameters: LDH / CK: unit not given here; conditions: mean ± standard error; for NA/RA: necrosis area/risk area; for CK: serum creatine kinase activity after reflow; for LDH: serum lactate dehydrogenase activity after reflow
# Experimental: Male Sprague Dawley rats weighing 270 to 410 g were anesthetized with sodium pentobarbital (50 mg/kg, i.p.) and fixed in the supine position. A canula was inserted into the trachea of each animal. Then the blood pressure of the animal was measured (AP-621G, Nippon Kohden Corp.) through a polyethylene tube (PE50, Becton Dickinson) inserted into the right femoral artery via a pressure transducer (Life Kit DTS, DX-300, Nippon Kohden Corp.) and the heart rate was determined from the pulse wave (AT-610G, Nippon Kohden Corp.). Two canulae (PE10 and PE50, Becton Dickinson) for injecting the maintenance anesthetic drug (sodium pentobarbital 20 mg/kg/h) and a coloring matter respectively were inserted into the right jugular vein. The left jugular vein was exposed for blood collection. The chest was opened by vertically sectioning the chest region from the third to fifth left ribs about 10 mm apart from the median line under artificial respiration with room air (Harvard respirator, model 683, rate : 60 strokes/min. tidal volume : 10 ml/kg body weight). Then the operative field was enlarged with a wound retractor and the heart sac was peeled off to thereby expose the heart. By using a curved round needle with thread for vascular tract (8mm, 6-0 black blaid silk, Matsuda Medical Industry), a thread of 4 to 5 mm in length was put in the left ventricle in the depth of 2 mm for ligating the coronary artery. After the completion of the operation, the animal was allowed to stand as such for 20 minutes or longer. After confirming that the blood pressure and the heart rate had been stabilized, the experiment was initiated.
# In this experiment, use was made of eight groups of rats including: 1) a physiological saline (i.e., the solvent for SIN-1) group; 2) an SIN-1 (3 µg/kg/min) group; 3) another SIN-1 (10 µg/kg/min) group; 4) 1% DMSO-containing physiological saline (adjusted to pH 5 with hydrochloric acid, i.e., the solvent for the compounds of Examples 1 and 2) group; 5) a group of the compound of Example 1 (10 µg/kg/min); 6) another group of the compound of Example 1 (30 µg/kg/min); 7) a group of the compound of Example 2 (3 µg/kg/min); and 8) another group of the compound of Example 2 (10 µg/kg/min). Each drug was intravenously administered continuously for 75 minutes (from 15 minutes before the ligation of the coronary artery to the completion of the reflow) at a rate of 0.95 ml/h. Fifteen minutes after the initiation of the drug administration, the coronary artery was ligated and maintained for 30 minutes. The coronary artery was ligated by the snare method with the use of a polyethylene tube (PE160, Becton Dickinson) and a vascular clamp (C-17 grooved, Natsume). After 30-minutes reflow, the risk area (RA) and the necrosis area (NA) were measured.
# The risk area and the necrosis area formed by ligating the coronary artery were measured by the double staining method with Evans blue and triphenyltetrazolium chloride (TTC) in the following manner. To clarify the risk area, the coronary artery was ligated again after the completion of the reflow. Subsequently, 1 ml of 5% Evans blue (Sigma) and a 1 M solution of KCl were successively injected into the jugular vein until the heart arrest. Thus, the non-risk area was stained dark blue. After the heart arrest, the heart was quickly taken out and washed with physiological saline. Then the left ventricle was separated and cut into circular slices of 3 mm in width with a trimming blade (Feather). To decide the necrosis area, these slices were incubated in a 0.1 M phosphate buffer (81 mM Na2HPO4: 19 mM NaH2PO4, pH 7.4) containing 1% TTC at 37°C for 5 minutes. Thus, living cells were exclusively stained red with TTC while the necrosis area was not stained. After staining with TTC, each wet slice was weighed, fixed with 20% formalin and then photographed while allowing to stand in physiological saline. […]
# isolated rat aorta = test: Test with the use of isolated rat aorta (relaxation of potassium chloride contraction); conditions: read-out: Rat aorta IC50
# Experimental: The thoracic aorta was taken out from male Sprague Dawley rats weighing 450 to 600 g and cut into circular samples of 2 mm in width. […] The contraction reactions of the samples were isometrically recorded with FD pick-up. After 1 to 1.5 hours of equilibration, 30 mM potassium chloride was added to contract the tissue. […] As the test compounds, the invention compounds obtained in the above Examples were employed.
# [2] = 3 µg/kg/min intravenously for 75 minutes
# [3] = 10 µg/kg/min intravenously for 75 minutes
# [4] = relaxation of continuous contraction due to 30 mM potassium chloride, thoracic aorta of male Sprague Dawley rats
IC50 (isolated rat aorta; [4]) [nM],Structure (SMILES),further results
850,"Cl.N=c1c[n+](N2CCOCC2)[n-]o1 [SIN-1, 3-morpholinosydnonimine hydrochloride, reference compound]","Blood pressure-lowering effect ED30 (anesthetized rat; dose causing a decrease in the blood pressure by 30%): 1.0 mg/kg; Blood pressure-lowering effect Half duration (anesthetized rat; half duration at ED30 (recovery to 50% of the maximum decrease in blood pressure)): 75 min; NA/RA [1, 2]: 18.5±4.3%; CK [1, 2]: 3138±207; LDH [1, 2]: 1082±60; NA/RA [1, 3]: 19.3±5.2%; CK [1, 3]: 2853±507; LDH [1, 3]: 1196±166"
160,"COc1ccccc1N1CCN([n+]2cc([N-]C(=O)[C@H](C)CSC(=O)c3ccccc3)on2)CC1 [Example 11, N-((S)-3-(Benzoylthio)isobutyryl)-3-(4-(2-methoxyphenyl)piperazin-1-yl)sydnonimine]",–
710,"CC(=O)SC[C@@H](C)C(=O)[N-]c1c[n+](N2CCN(C(=O)[C@@H]3CSC(=O)N3)CC2)no1 [Example 28, N-((S)-3-(Acetylthio)isobutyryl)-3-(4-((R)-2-oxo-4-thiazolidinecarbonyl)piperazin-1-yl)sydnonimine]",–
140,"COc1ccc(CN2CCN([n+]3cc([N-]C(=O)CSC(C)=O)on3)CC2)c(OC)c1OC [Example 50, N-((Acetylthio)acetyl)-3-(4-(2,3,4-trimethoxyphenylmethyl)piperazin-1-yl)sydnonimine]",–
780,"COc1cc(CCN2CCN([n+]3cc([N-]C(=O)[C@H](C)CSC(=O)c4ccccc4)on3)CC2)cc(OC)c1OC [Example 45, N-((S)-3-(Benzoylthio)isobutyryl)-3-(4-(2-(3,4,5-trimethoxyphenyl)ethyl)piperazin-1-yl)sydnonimine]",–
–,"COc1cc(CC(=O)N2CCN([n+]3cc([N-]C(=O)CSC(C)=O)on3)CC2)cc(OC)c1OC [Example 40, N-((Acetylthio)acetyl)-3-(4-((3,4,5-trimethoxyphenyl)acetyl)piperazin-1-yl)sydnonimine]",IC50 (isolated rat aorta): 280 nM
110,"COc1cc(CN2CCN([n+]3cc([N-]C(=O)CSC(C)=O)on3)CC2)cc(OC)c1OC [Example 48, N-((Acetylthio)acetyl)-3-(4-(3,4,5-trimethoxyphenylmethyl)piperazin-1-yl)sydnonimine]",–
56,"CC1CCCC(C)N1[n+]1cc([N-]C(=O)CSC(=O)c2ccccc2)on1 (centres unmarked) [Example 16, N-((Benzoylthio)acetyl)-3-(2,6-dimethylpiperidin-1-yl)sydnonimine]",–
36,O=C(CSC(=O)c1ccccc1)[N-]c1c[n+](N2CCN(C(=O)CSC(=O)c3ccccc3)CC2)no1 [Example 31],–
940,"COc1ccc(CN2CCN([n+]3cc([N-]C(=O)CSc4cc(C(C)(C)C)c(O)c(C(C)(C)C)c4)on3)CC2)cc1OC [Example 47, N-((3,5-Di-t-butyl-4-hydroxyphenylthio)acetyl)-3-(4-(3,4-dimethoxyphenylmethyl)piperazin-1-yl)sydnonimine]",–
550,"CC1CCCC(C)N1[n+]1cc([N-]C(=O)CSc2cc(C(C)(C)C)c(O)c(C(C)(C)C)c2)on1 (centres unmarked) [Example 13, N-((3,5-Di-t-butyl-4-hydroxyphenylthio)acetyl)-3-(2,6-dimethylpiperidin-1-yl)sydnonimine]",–
570,"C[C@H](CSC(=O)c1ccccc1)C(=O)[N-]c1c[n+](N(C)C)no1 [Example 5, N-((S)-3-(Benzoylthio)isobutyryl)-3-dimethylaminosydnonimine]",–
120,"CC(=O)SCC(=O)N1CCN([n+]2cc([N-]C(=O)CSC(=O)c3ccccc3)on2)CC1 [Example 30-D, 3-(4-(Acetylthio)acetyl)piperazin-1-yl)-N-((benzoylthio)acetylsydnonimine]",–
540,"CC(=O)SC[C@@H](C)C(=O)[N-]c1c[n+](N2CCOCC2)no1 [Example 67, N-((S)-3-(Acetylthio)isobutyryl)-3-morpholinosydnonimine]",–
45,COc1cc(CC(=O)N2CCN([n+]3cc([N-]C(=O)CSC(=O)c4ccccc4)on3)CC2)cc(OC)c1OC [Example 32],–
630,COc1cc(CC(=O)N2CCN([n+]3cc([N-]C(=O)[C@H](C)CSC(C)=O)on3)CC2)cc(OC)c1OC [Example 25],–
470,CC(=O)SC[C@@H](C)C(=O)[N-]c1c[n+](N2CCN(C(=O)CSc3cc(C(C)(C)C)c(O)c(C(C)(C)C)c3)CC2)no1 [Example 24-D],–
46,"COc1cc(CN2CCN([n+]3cc([N-]C(=O)CSC(=O)c4ccccc4)on3)CC2)cc(OC)c1OC [Example 49, N-((Benzoylthio)acetyl)-3-(4-(3,4,5-trimethoxyphenylmethyl)piperazin-1-yl)sydnonimine]",–
630,"CC(=O)SC[C@@H](C)C(=O)[N-]c1c[n+](N2CCN(C(=O)[C@H](C)CSC(=O)c3ccccc3)CC2)no1 [Example 29, N-((S)-3-(Acetylthio)isobutyryl)-3-(4-((S)-3-(benzoylthio)isobutyryl)piperazin-1-yl)sydnonimine]",–
300,"COc1ccc(CN2CCN([n+]3cc([N-]C(=O)CSC(=O)c4ccccc4)on3)CC2)c(OC)c1OC [Example 51, N-((Benzoylthio)acetyl)-3-(4-(2,3,4-trimethoxyphenylmethyl)piperazin-1-yl)sydnonimine]",–
420,"C[C@H](CSC(=O)c1ccccc1)C(=O)[N-]c1c[n+](N2CCN(CCSC(=O)c3ccccc3)CC2)no1 [Example 52-B, N-((S)-3-(Benzoylthio)isobutyryl)-3-(4-(2-(benzoylthio)ethyl)piperazin-1-yl)sydnonimine]",–
